Results from patent US12187727B2, “Methods for antagonizing a melanocortin 4 receptor” (Pfizer Inc., priority 2020, dated 2025).

Columns and labels:
[1] = target: hMC4R (Homo sapiens (Human), UniProt P32245); assay: In vitro binding affinity assay using hMC4R (radioligand competition binding, [125I]-(Nle4, D-Phe7)-α-MSH); conditions: geometric mean, read-out: Ki (nM) geometric mean
Description: Example AA. In Vitro Binding Affinity Assay Using hMC4R
The binding affinity of test compounds at the […] (hMC4R) was assessed using a radioligand competition binding assay. […] Cell membranes were bulked and frozen until the assay was performed.
Compounds were solubilized in 100% dimethyl sulfoxide (DMSO) to a concentration of 30 mM. A 10-point intermediate dilution series using half log dilutions was created in 100% DMSO with a top concentration of 0.03 mM. […] The final compound range in the assay was 300 nM to 0.01 nM with a final DMSO concentration of 1%. […] The exact concentration of radioligand used for each experiment was determined by liquid scintillation counting and adjusted if necessary.
Frozen hMC4R cell membranes were thawed and Dounce homogenized. Homogenates were resuspended in assay buffer to a concentration of 2 μg per well. […] The plates were incubated for 2 hours at room temperature.
The raw data (expressed as counts per minute) were analyzed using ActivityBase (IDBS Data Management Software). […] Equilibrium dissociation constant for inhibitor of ligand and receptor interaction (Ki) values were then calculated from the IC50 values using the Cheng-Prusoff equation: Ki=IC50/(1+([L]/Kd)), where [L] is the concentration of the radioligand used in the experiment and Kd is the affinity of the radioligand (determined in separate saturation experiments).

[2] = target: human Melanocortin-4 receptor (MC4R) (Homo sapiens (Human), UniProt P32245); assay: Functional in vitro MC4R antagonist potency assay (cAMP HTRF in CHO cells); type: cell-based; conditions: read-out: Kb (nM) Antagonist geometric mean
How it was run: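 CHO cells stably expressing human MC4R were preincubated 30 min at 37 °C with compound ([…], 0.1% DMSO), then stimulated 30 min with EC80 αMSH (200 nM). Intracellular cAMP quantified by HTRF competitive immunoassay and normalized to agonist-stimulated and vehicle-only wells.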

human Melanocortin-4 receptor (MC4R), sequence (P32245 whole entry): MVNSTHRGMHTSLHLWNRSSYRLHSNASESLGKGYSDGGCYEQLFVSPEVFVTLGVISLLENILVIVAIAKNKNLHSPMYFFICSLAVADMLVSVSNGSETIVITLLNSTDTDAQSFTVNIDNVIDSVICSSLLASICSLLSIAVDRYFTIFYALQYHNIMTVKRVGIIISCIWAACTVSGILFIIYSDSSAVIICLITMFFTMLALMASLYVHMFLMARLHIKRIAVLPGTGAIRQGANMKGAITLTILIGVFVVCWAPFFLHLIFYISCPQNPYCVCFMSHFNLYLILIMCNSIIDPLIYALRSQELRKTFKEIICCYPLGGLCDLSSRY
hMC4R, sequence (P32245 whole entry): as above

Compound | Ki [1] | Kb [2]
Cc1nc2c(cc1-c1ncccn1)CC[C@@]1(CCN(C(=O)[C@H](C)c3ccc(Cl)cc3Cl)C1)N2 (single isomer, unassigned) [Example 34] | 0.9 nM | 4.2 nM
Cc1nc2c(cc1-c1ncccn1)CC[C@@]1(CCN(C(=O)[C@H](C)c3ccc(Cl)cc3Cl)C1)N2 (single isomer, unassigned) [Example 35] | 82 nM | > 95 nM
Cc1nc(OC(F)F)cc([C@@H](C)C(=O)N2CC[C@@]3(CCc4cc(-c5ncccn5)c(C)nc4N3)C2)n1 (single isomer, unassigned) [Example 45] | 0.95 nM | 0.76 nM
Cc1nc2c(cc1-c1ncccn1)CC[C@@]1(CCN(C(=O)[C@H](C)c3ccc(OC(F)(F)F)cc3)C1)N2 (single isomer, unassigned) [Example 48] | 0.36 nM | 1.8 nM
Cc1nc2c(cc1-c1ncccn1)CC[C@@]1(CCN(C(=O)[C@H](C)c3ccc(OC(F)(F)F)cc3)C1)N2 (single isomer, unassigned) [Example 49] | 64 nM | > 95 nM
Cc1nc2c(cc1-c1ncccn1)CC[C@@]1(CCN(C(=O)[C@H](C)c3ccc(F)c(F)c3)C1)N2 (single isomer, unassigned) [Example 51] | 120 nM | > 110 nM
Cc1nc2c(cc1-c1ncccn1)CC[C@@]1(CCN(C(=O)[C@H](C)c3cc(F)c(F)cc3F)C1)N2 (single isomer, unassigned) [Example 52] | 0.68 nM | 2.6 nM
Cc1nc2c(cc1-c1ncccn1)CC[C@@]1(CCN(C(=O)[C@H](C)c3cc(F)c(F)cc3F)C1)N2 (single isomer, unassigned) [Example 53] | 54 nM | > 95 nM
Cc1nc2c(cc1-c1ncccn1)CC[C@@]1(CCN(C(=O)[C@H](C)c3cc(F)c(F)c(F)c3)C1)N2 (single isomer, unassigned) [Example 55] | 58 nM | > 95 nM
Cc1nc2c(cc1-c1ncccn1)CC[C@@]1(CCN(C(=O)[C@H](C)c3cc(F)c(F)c(F)c3)C1)N2 (single isomer, unassigned) [Example 56] | 0.51 nM | 0.8 nM
COc1cc(OC(F)F)cc([C@@H](C)C(=O)N2CC[C@@]3(CCc4cc(-c5ncccn5)c(C)nc4N3)C2)c1 (single isomer, unassigned) [Example 62] | 0.15 nM | 0.08 nM
Cc1nc2c(cc1-c1ncccn1)CC[C@@]1(CCN(C(=O)C(C)c3cc(OC(F)(F)F)ncc3Cl)C1)N2 (single isomer, unassigned) [Example 64] | 1 nM | 5.1 nM

Other lines, results leading:

Ki [1] | Kb [2] | Compound
0.52 nM | 0.19 nM | COc1cc([C@@H](C)C(=O)N2CC[C@@]3(CCc4cc(-c5ncccn5)c(C)nc4N3)C2)c(C(F)F)cn1 (single isomer, unassigned) [Example 36]
4.9 nM | 23 nM | Cc1nc2c(cc1-c1ncccn1)CC[C@@]1(CCN(C(=O)[C@H](C)c3cc(C(F)(F)F)ncc3Cl)C1)N2 (single isomer, unassigned) [Example 39]
0.53 nM | 0.12 nM | COc1cc([C@@H](C)C(=O)N2CC[C@@]3(CCc4cc(-c5ncccn5)c(C)nc4N3)C2)c(C(F)(F)F)cn1 (single isomer, unassigned) [Example 41]
2.5 nM | 12 nM | COc1nccc([C@@H](C)C(=O)N2CC[C@@]3(CCc4cc(-c5ncccn5)c(C)nc4N3)C2)c1F (single isomer, unassigned) [Example 57]
190 nM | > 62 nM | COc1nccc([C@@H](C)C(=O)N2CC[C@@]3(CCc4cc(-c5ncccn5)c(C)nc4N3)C2)c1F (single isomer, unassigned) [Example 58]
0.54 nM | 0.18 nM | Cc1nc2c(cc1-c1ncccn1)CC[C@@]1(CCN(C(=O)[C@H](C)c3cc(OC(F)F)ncc3Cl)C1)N2 (single isomer, unassigned) [Example 60]
2.2 nM | 9 nM | Cc1nc2c(cc1-c1ncccn1)CC[C@@]1(CCN(C(=O)[C@H](C)c3cc(OC(F)(F)F)ncc3F)C1)N2 (single isomer, unassigned) [Example 76]
